Assay results reported in patent US8287887B2, “Antigen-and-drug vehicle comprising synthetic peptide, and mucosal vaccine using the same” (priority 2008, dated 2012).

Columns and labels:
[1] = system: influenza virus A strain New Calcdonia (H1N1); design: species or system Clawn minipigs; conditions: minipig, in vivo
[2] = system: influenza A virus strain Aichi/68/2/H3N2; assay: Nasal vaccination of mice; anti-influenza IgA and IgG in nasal cavity lavage fluids and blood serum by ELISA; type: in vivo, BALB/c mice; conditions: compared with HA vaccine alone or with other AD vehicles

Row | Sequence | Effectiveness of AD vehicle in inducing antibody titers, in words [1] | Antibody-production-enhancing effect (IgA and/or IgG), in words [2]
1 | PVHLKRLLLLLLLLLLL [SP-CL11] | effective | 
2 | PVHLRKLLLLLLLLLLLLLLLL (PVHLKRLLLLLLLLLLLLLLLL) [RK-SP-CL, comparison peptide; KR of the 5th-6th positions of SP-CL11 reversed to RK, more L residues] |  | not much involved in the antibody production
3 | KKKKKKLLLLLLLLLLLLLLLL [K6L16, six K residues on the N-terminal side and 16 L residues on the C-terminal side] | effective | 
